Data set [1] is filed under the species Homo sapiens. The data set is described as follows: Inhibition of amyloid beta (1 to 42 ) (unknown origin) self aggregation at 25 uM after 48 hrs by thioflavin-T fluorescence method relative to control.
Data set [2] is filed under the species Homo sapiens. Kind of data set: Inhibition of amyloid beta (1 to 42 ) (unknown origin) self aggregation at 25 uM after 48 hrs by TEM analysis.
Another data set has as its target Cholinesterase (Equus caballus, UniProt P81908). Kind of data set: Inhibition of equine serum BuChE using butyrylthiocholine iodide as substrate incubated for 5 mins followed by substrate addition and measured after 2 mins by Ellman's method. Format: cell-free. Background: Ellman's reagent forms a yellow product with free thiols.
The target in another data set is Acetylcholinesterase (Electrophorus electricus, UniProt O42275). Kind of data set: Inhibition of electric eel AchE using acetylthiocholine iodide as substrate incubated for 5 mins followed by substrate addition and measured after 2 mins by Ellman's method.
Data set [3] relates to SH-SY5Y. Kind of data set: Neuroprotective activity against amyloid beta (1 to 42)-induced shrink on cell body in human SH-SY5Y cells at 20 uM incubated for 24 hrs in presence of amyloid beta (1 to 42) by phase-contrast microscopic analysis. Format: functional, cell-based.
Data set [4] has as its system SH-SY5Y. The data set is described as follows: Cytotoxicity against human SH-SY5Y cells assessed as reduction in cell viability at 1 uM incubated for 48 hrs by MTT assay. Format: cell-based. (Tetrazolium assays rely on reduction of a dye to a coloured formazan, in cell work by metabolically active cells.)
In data set [5] the test system is SH-SY5Y. Kind of data set: Neuroprotective activity against amyloid beta (1 to 42)-induced fade synapses in human SH-SY5Y cells at 20 uM incubated for 24 hrs in presence of amyloid beta (1 to 42) by phase-contrast microscopic analysis. Format: functional, cell-based.
The subject of data set [6] is SH-SY5Y. Kind of data set: Neuroprotective activity against amyloid beta (1 to 42)-induced loss of adherence in human SH-SY5Y cells at 20 uM incubated for 24 hrs in presence of amyloid beta (1 to 42) by phase-contrast microscopic analysis. Format: functional, cell-based.
For data set [7], the system named is SH-SY5Y. Kind of data set: Cytotoxicity against human SH-SY5Y cells assessed as reduction in cell viability at 75 uM incubated for 48 hrs by MTT assay. Format: cell-based.
Data set [8] relates to SH-SY5Y. The data set is described as follows: Inhibition of H2O2-induced ROS accumulation in human SH-SY5Y cells at 10 to 20 uM incubated for 24 hrs by […] probe based fluorescence assay. Format: functional, cell-based. As to conditions: dose 10-20 µM.
Data set [9] has as its system SH-SY5Y. Kind of data set: Inhibition of H2O2-induced cell death in human SH-SY5Y cells at 20 uM incubated for 24 hrs by microscopic analysis. Format: functional, cell-based.
The subject of data set [10] is SH-SY5Y. The data set is described as follows: Cytotoxicity against human SH-SY5Y cells assessed as reduction in cell viability at 50 uM incubated for 48 hrs by MTT assay. Format: cell-based.
Data set [11] has as its system SH-SY5Y. The data set is described as follows: Cytotoxicity against human SH-SY5Y cells assessed as reduction in cell viability at 5 uM incubated for 48 hrs by MTT assay. Format: cell-based.
Data set [12] concerns SH-SY5Y. Kind of data set: Neuroprotective activity against amyloid beta (1 to 42)-induced neurotoxicity in human SH-SY5Y cells at 5 to 20 uM incubated for 48 hrs in presence of amyloid beta (1 to 42) by MTT assay. Format: functional, cell-based. The conditions noted are these: dose 5-20 µM.
In data set [13] the test system is SH-SY5Y. Kind of data set: Neuroprotective activity against amyloid beta (1 to 42)-induced cell floating in human SH-SY5Y cells at 20 uM incubated for 24 hrs in presence of amyloid beta (1 to 42) by phase-contrast microscopic analysis. Format: functional, cell-based.
Data set [14] deals with SH-SY5Y. The data set is described as follows: Cytotoxicity against human SH-SY5Y cells assessed as reduction in cell viability at 25 uM incubated for 48 hrs by MTT assay. Format: cell-based.
The subject of data set [15] is SH-SY5Y. Kind of data set: Neuroprotective activity against amyloid beta (1 to 42)-induced cell fragmentation in human SH-SY5Y cells at 20 uM incubated for 24 hrs in presence of amyloid beta (1 to 42) by phase-contrast microscopic analysis. Format: functional, cell-based.
The test system of data set [16] is SH-SY5Y. Kind of data set: Inhibition of H2O2-induced morphological changes in human SH-SY5Y cells at 20 uM incubated for 24 hrs by microscopic analysis. Format: functional, cell-based.
For data set [17], the system named is SH-SY5Y. Kind of data set: Cytotoxicity against human SH-SY5Y cells assessed as reduction in cell viability at 10 uM incubated for 48 hrs by MTT assay. Format: cell-based.
Data set [18] deals with SH-SY5Y. The data set is described as follows: Cytotoxicity against human SH-SY5Y cells assessed as reduction in cell viability at 100 uM incubated for 48 hrs by MTT assay. Format: cell-based.
In data set [19] the target is Acetylcholinesterase (Electrophorus electricus) (UniProt O42275). Kind of data set: Mixed inhibition of electric eel AchE using acetylthiocholine iodide as substrate incubated for 5 mins followed by substrate addition and measured after 2 mins by Ellman's method based Lineweaver-Burk plot analysis. As to conditions: time 7.0 min.

Active and inactive are the calls of the source. The rule behind the calls is not given here.

This note sets out measurements from ChEMBL document CHEMBL4715711, “Development of cyanopyridine-triazine hybrids as lead multitarget anti-Alzheimer agents” (Bioorg Med Chem, 2016).

As a reminder, the inhibition is the drop in the measured response relative to a control, in per cent. Broadly, the IC50 is the midpoint of a concentration-inhibition curve.

Chain of Acetylcholinesterase (O42275 whole entry): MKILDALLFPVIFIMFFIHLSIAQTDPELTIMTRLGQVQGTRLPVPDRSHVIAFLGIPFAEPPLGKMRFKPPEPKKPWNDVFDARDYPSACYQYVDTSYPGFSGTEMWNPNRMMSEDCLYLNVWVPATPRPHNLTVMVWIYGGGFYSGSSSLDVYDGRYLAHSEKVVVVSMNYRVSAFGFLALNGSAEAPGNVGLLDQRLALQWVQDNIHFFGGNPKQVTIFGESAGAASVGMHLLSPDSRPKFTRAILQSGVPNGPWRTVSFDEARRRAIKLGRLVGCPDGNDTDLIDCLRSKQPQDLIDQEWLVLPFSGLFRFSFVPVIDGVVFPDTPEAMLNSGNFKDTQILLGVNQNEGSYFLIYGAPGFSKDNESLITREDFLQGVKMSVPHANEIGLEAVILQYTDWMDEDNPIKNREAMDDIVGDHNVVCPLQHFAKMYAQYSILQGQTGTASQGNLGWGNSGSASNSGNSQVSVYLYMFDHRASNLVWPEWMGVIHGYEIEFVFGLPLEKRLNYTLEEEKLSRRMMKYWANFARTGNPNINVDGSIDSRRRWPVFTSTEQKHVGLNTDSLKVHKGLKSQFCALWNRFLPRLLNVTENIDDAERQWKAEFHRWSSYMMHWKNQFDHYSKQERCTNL
Chain of Cholinesterase (P81908 whole entry): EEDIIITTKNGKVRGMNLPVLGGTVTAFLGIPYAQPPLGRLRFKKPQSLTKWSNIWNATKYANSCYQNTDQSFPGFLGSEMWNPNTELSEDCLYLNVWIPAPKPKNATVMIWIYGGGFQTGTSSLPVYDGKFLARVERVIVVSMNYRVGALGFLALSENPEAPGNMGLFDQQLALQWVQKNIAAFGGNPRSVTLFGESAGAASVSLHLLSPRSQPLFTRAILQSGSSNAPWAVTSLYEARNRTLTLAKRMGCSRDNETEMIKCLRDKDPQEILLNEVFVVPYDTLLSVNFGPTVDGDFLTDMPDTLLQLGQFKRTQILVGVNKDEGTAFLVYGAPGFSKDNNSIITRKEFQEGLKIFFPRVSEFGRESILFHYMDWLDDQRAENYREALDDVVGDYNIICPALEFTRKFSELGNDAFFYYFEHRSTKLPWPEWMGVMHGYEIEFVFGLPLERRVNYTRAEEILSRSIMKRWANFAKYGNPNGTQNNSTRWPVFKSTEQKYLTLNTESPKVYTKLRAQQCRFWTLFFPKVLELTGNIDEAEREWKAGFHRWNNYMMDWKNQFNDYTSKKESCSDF
Chain of Acetylcholinesterase (Electrophorus electricus) (O42275 24-633 limits assumed): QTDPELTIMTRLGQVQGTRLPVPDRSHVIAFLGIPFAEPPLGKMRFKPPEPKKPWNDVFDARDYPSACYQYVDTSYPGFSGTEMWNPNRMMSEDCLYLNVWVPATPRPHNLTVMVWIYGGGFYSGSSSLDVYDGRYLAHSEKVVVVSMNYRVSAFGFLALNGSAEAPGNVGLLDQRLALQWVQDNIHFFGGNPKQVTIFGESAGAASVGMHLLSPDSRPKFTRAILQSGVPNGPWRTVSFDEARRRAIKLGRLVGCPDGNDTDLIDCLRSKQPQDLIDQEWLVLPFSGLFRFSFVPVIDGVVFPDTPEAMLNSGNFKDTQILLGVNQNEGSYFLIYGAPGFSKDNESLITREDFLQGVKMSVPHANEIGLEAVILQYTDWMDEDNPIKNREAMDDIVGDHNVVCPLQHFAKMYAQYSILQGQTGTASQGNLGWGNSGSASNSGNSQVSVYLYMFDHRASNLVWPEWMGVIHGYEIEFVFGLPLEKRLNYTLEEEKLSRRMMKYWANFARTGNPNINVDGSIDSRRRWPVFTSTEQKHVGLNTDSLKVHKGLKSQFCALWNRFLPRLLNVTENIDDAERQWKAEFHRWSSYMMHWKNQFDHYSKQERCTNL

In the case of `COc1cc(/C=C/C(=O)CC(=O)/C=C/c2ccc(O)c(OC)c2)ccc1O`, the inhibition in the data set listed under Homo sapiens [1] was found to be 55.3%. The inhibition result in the data set filed under Homo sapiens [2] is “Active”.

With `Cc1ccc(Nc2nc(Nc3ccc(F)c(Cl)c3)nc(N3CCN(c4ncccc4C#N)CC3)n2)cc1`, the half-maximal inhibitory concentration (IC50) amounted to 5360 nM at Cholinesterase and 1700 nM on Acetylcholinesterase. The molecule further came in with an inhibition in the data set listed under Homo sapiens [1] of 63.5%.

As for `N#Cc1cccnc1N1CCN(c2nc(Nc3cccc(C(F)(F)F)c3)nc(NC3CC3)n2)CC1`, the values for the half-maximal inhibitory concentration (IC50) against Cholinesterase and against Acetylcholinesterase were 5250 nM and 528 nM, respectively. Further, the inhibition in the data set filed under Homo sapiens [1] was found to be 60.7%.

Take `COc1ccc(Nc2nc(Nc3cccc(C(F)(F)F)c3)nc(N3CCN(c4ncccc4C#N)CC3)n2)cc1`: the outcome in the data set with SH-SY5Y [3], with SH-SY5Y [5], in the data set on SH-SY5Y [6], in the data set with SH-SY5Y [13] and in the data set on SH-SY5Y [15] was Active. The IC50 on Cholinesterase worked out at 2020 nM; on Acetylcholinesterase it was 80 nM. The Activity is 98.1% in the data set with SH-SY5Y [4]; 86.3% in the data set with SH-SY5Y [7]; 89.6% in the data set on SH-SY5Y [10]; 96.4% with SH-SY5Y [11]; “Dose-dependent effect” in the data set with SH-SY5Y [12]; 93.8% in the data set with SH-SY5Y [14]. For the same molecule, the results for the Activity in the data set with SH-SY5Y [17] and in the data set with SH-SY5Y [18] were 94.7% and 83.3%, respectively. Further, the inhibition result in the data set with SH-SY5Y [8], in the data set on SH-SY5Y [9], with SH-SY5Y [16] and in the data set listed under Homo sapiens [2] was “Active” in each case. In the data set listed under Homo sapiens [1], the inhibition worked out at 82.4%.

On to `COc1ccc(Nc2nc(Nc3ccccc3F)nc(N3CCN(c4ncccc4C#N)CC3)n2)cc1`, for which the IC50 on Cholinesterase turned out to be 4130 nM; at Acetylcholinesterase, 1410 nM. For the same molecule, the inhibition in the data set filed under Homo sapiens [1] stood at 68.5%.

For `Cc1ccc(Nc2nc(Nc3cccc(C(F)(F)F)c3)nc(N3CCN(c4ncccc4C#N)CC3)n2)cc1`, the values for the IC50 against Cholinesterase and on Acetylcholinesterase were 2210 nM and 153 nM, respectively. In the data set filed under Homo sapiens [1], this molecule came in with an inhibition of 70.5%.

With `N#Cc1cccnc1N1CCN(c2nc(Nc3cccc(C(F)(F)F)c3)nc(Nc3ccc(F)cc3F)n2)CC1`, the half-inhibitory concentration (IC50) against Cholinesterase amounted to 2850 nM; on Acetylcholinesterase, 72 nM. In addition, in the data set listed under Homo sapiens [1], the inhibition was 81.2%.

As for `N#Cc1cccnc1N1CCN(c2nc(Nc3cccc(C(F)(F)F)c3)nc(Nc3ccc(F)c(Cl)c3)n2)CC1`, the result in the data set with SH-SY5Y [3], with SH-SY5Y [5], with SH-SY5Y [6], in the data set on SH-SY5Y [12], in the data set on SH-SY5Y [13] and in the data set on SH-SY5Y [15] was Active. The IC50 against Cholinesterase worked out at 3600 nM; against Acetylcholinesterase, 59 nM. The Activity in the data set with SH-SY5Y [4] was 97.1%; in the data set with SH-SY5Y [7], 84.3%; with SH-SY5Y [10], 88.6%; in the data set with SH-SY5Y [11], 95.4%; in the data set on SH-SY5Y [14], 92.8%; in the data set with SH-SY5Y [17], 95.7%. Also, in the data set with SH-SY5Y [18], the Activity worked out at 80.3%. Further, the inhibition result (with SH-SY5Y [8]; in the data set on SH-SY5Y [9]; in data set [19]; in the data set on SH-SY5Y [16]; in the data set filed under Homo sapiens [2]) was “Active” in each case. Further, the inhibition in the data set filed under Homo sapiens [1] came to 83.7%.

With `N#Cc1cccnc1N1CCN(c2nc(Nc3ccc(F)cc3)nc(Nc3cccc(C(F)(F)F)c3)n2)CC1`, the IC50 on Cholinesterase worked out at 4890 nM; against Acetylcholinesterase, 84 nM. Besides, the inhibition in the data set listed under Homo sapiens [1] was 80.4%.
